Results on three compounds are retold here after ChEMBL document CHEMBL1201862, “PubChem BioAssay data set” (2004).

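Briefly, cells in 96-well plates were exposed to five compound concentrations for 48 h, and endpoints were estimated by linear interpolation. The concentration for 50% growth inhibition is given as GI50.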 Activity calls are given as the source filed them. No stated cut-off is given here; in the data, active = GI50 up to about 1.1 µM and inactive = higher.

Among the test systems are A549; ACHN; HCT-116; K562; KM12; LOX IMVI; M14; MDA-MB-231; NCI-H226; RPMI-8226; RXF 393; SF-295; SK-MEL-2; SK-OV-3; SNB-75; SR; SW-620; T47D; U-251; UACC-257.
Common to all, as to assay: NCI anticancer screen, dose series, 48 h

As to `c1ccc2c(c1)cc1ccc3cccc4ccc2c1c34`, the GI50 is > 100 µM (inactive) in the assay on A549; > 100 µM (inactive) in the assay with ACHN; > 100 µM (inactive) in the assay with HCT-116; > 100 µM (inactive) with K562; 26.2 µM (inactive) in the assay on KM12; > 100 µM (inactive) in the assay on LOX IMVI. In addition, the GI50 with M14, in the assay on MDA-MB-231, in the assay on NCI-H226, with RPMI-8226, with RXF 393 and with SF-295 was > 100 µM (inactive) in each case. In addition, the GI50 in the assay with SK-MEL-2, in the assay with SK-OV-3, in the assay with SNB-75, in the assay on SR, with SW-620 and in the assay on T47D was > 100 µM (inactive) in each case. Also, the GI50 with U-251 and in the assay on UACC-257 was > 100 µM (inactive) throughout.

Regarding `CCOc1ccnc2c(OC)c(C)c3nc4ccccc4nc3c12`, the GI50 was > 100 µM (inactive) in the assay with A549; > 100 µM (inactive) in the assay with ACHN; > 100 µM (inactive) with HCT-116; 98.6 µM (inactive) with K562; 86.5 µM (inactive) in the assay with KM12; > 100 µM (inactive) in the assay on LOX IMVI. For the same compound, the GI50 is > 100 µM (inactive) in the assay on M14; > 100 µM (inactive) in the assay on MDA-MB-231; > 100 µM (inactive) in the assay with NCI-H226; > 100 µM (inactive) in the assay on RPMI-8226; 8.39 µM (inactive) in the assay on RXF 393; > 100 µM (inactive) with SF-295. Moreover, the GI50 in the assay on SK-MEL-2 was > 100 µM (inactive); with SK-OV-3, > 100 µM (inactive); with SNB-75, 25.3 µM (inactive); in the assay on SR, 18.6 µM (inactive); in the assay on SW-620, > 100 µM (inactive); in the assay with T47D, 3.31 µM (inactive). The GI50 in the assay on U-251 and in the assay with UACC-257 was > 100 µM (inactive) in each case.

With `CC(C)(C)c1cc(OCc2nnc3sc(-c4ccc(Cl)cc4)nn23)c(Cl)cc1OCc1nnc2sc(-c3ccc(Cl)cc3)nn12`, the GI50 in the assay on A549 was 4.21 µM (inactive); in the assay with ACHN it was 5.4 µM (inactive); in the assay on HCT-116 it was 3.54 µM (inactive); with K562, 1.95 µM (inactive); with KM12, 2.47 µM (inactive); in the assay with LOX IMVI, 5.04 µM (inactive). The GI50 is 3.06 µM (inactive) in the assay on M14; 8.15 µM (inactive) in the assay on MDA-MB-231; 17.3 µM (inactive) with NCI-H226; 3.56 µM (inactive) with RPMI-8226; 2.81 µM (inactive) in the assay with RXF 393; 3.3 µM (inactive) with SF-295. Also, the GI50 in the assay with SK-MEL-2 was 7.91 µM (inactive); with SK-OV-3, 4.06 µM (inactive); in the assay with SNB-75 it was 2.19 µM (inactive); with SR, 0.315 µM (active); with SW-620, 3.13 µM (inactive); with T47D it was 1.97 µM (inactive). For the same compound, the GI50 in the assay on U-251 is 5.79 µM (inactive); in the assay with UACC-257, 11.5 µM (inactive).
